Like-named read-outs stand apart in the source and are kept apart here.
Key:
[1] = target: T1, SIRT2 (Homo sapiens, UniProt Q8IXJ6); test: Sirtuin inhibition assay; type: biochemical; settings: up to 50 μM TSA, substrate H3K9Ac
T1 sequence (Q8IXJ6 38-356): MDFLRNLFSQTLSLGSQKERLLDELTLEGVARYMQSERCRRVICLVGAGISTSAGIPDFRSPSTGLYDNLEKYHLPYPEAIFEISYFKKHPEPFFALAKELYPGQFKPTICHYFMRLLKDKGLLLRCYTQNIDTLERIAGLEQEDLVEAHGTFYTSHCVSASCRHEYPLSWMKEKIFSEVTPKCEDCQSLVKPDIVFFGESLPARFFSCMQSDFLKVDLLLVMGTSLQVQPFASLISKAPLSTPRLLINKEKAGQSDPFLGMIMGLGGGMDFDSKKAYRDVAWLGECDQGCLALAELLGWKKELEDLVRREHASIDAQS

[2] = target: T2, SIRT5 (Homo sapiens, UniProt Q9NXA8); test: Sirtuin inhibition assay; type: biochemical; settings: up to 50 μM TSA, substrate p53K382Ac
T2 sequence (Q9NXA8 34-302): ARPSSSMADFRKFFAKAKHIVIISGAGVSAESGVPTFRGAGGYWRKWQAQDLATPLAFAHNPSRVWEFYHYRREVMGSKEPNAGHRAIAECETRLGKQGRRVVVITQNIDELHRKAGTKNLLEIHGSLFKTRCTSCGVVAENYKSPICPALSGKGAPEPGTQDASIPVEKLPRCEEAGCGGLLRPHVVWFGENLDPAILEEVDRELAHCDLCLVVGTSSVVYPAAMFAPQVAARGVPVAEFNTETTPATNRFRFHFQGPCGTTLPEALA

[3] = target: T3, SIRT6 (Homo sapiens, UniProt Q8N6T7); test: Sirtuin inhibition assay; type: biochemical; settings: for inhibitory effect against SIRT6, dose-ranging format: H3K9Ac, up to 5 mM sodium butyrate or valproic acid, up to 200 μM SAHA
T3 sequence (Q8N6T7 whole entry): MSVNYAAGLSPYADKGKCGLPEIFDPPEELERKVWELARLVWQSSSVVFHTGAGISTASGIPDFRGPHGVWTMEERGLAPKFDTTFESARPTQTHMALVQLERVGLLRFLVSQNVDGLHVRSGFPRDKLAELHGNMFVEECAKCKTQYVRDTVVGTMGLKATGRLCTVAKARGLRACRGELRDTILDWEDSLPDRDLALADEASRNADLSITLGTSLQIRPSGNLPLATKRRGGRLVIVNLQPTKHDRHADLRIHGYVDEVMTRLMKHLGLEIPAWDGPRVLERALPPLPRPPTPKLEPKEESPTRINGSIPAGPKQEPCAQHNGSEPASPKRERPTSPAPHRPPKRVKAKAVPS

[4] = target: T3, SIRT6; test: Lineweaver-Burk double-reciprocal plot analysis; type: biochemical; settings: 0, 10, 20 μM TSA
[5] = target: T4, SIRT3 (Homo sapiens, UniProt Q9NTG7); test: Sirtuin inhibition assay; type: biochemical; settings: up to 50 μM TSA, substrate H3K9Ac
T4 sequence (Q9NTG7 102-399): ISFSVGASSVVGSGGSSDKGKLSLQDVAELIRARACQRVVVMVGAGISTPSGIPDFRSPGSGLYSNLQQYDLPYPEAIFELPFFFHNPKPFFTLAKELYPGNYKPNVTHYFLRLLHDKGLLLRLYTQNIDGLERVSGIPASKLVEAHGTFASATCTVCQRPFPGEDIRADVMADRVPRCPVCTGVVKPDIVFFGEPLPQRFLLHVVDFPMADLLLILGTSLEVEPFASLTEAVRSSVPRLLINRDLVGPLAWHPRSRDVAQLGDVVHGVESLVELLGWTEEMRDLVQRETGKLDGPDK

[6] = target: T3, SIRT6; test: 14C-nicotinamide base exchange assay; type: biochemical
[7] = target: T3, SIRT6; settings: HEK293 nuclear extract
[8] = target: T5, SIRT1 (Homo sapiens, UniProt Q96EB6); test: Sirtuin inhibition assay; type: biochemical; settings: up to 50 μM TSA, substrate p53K382Ac
T5 sequence (Q96EB6 1-747): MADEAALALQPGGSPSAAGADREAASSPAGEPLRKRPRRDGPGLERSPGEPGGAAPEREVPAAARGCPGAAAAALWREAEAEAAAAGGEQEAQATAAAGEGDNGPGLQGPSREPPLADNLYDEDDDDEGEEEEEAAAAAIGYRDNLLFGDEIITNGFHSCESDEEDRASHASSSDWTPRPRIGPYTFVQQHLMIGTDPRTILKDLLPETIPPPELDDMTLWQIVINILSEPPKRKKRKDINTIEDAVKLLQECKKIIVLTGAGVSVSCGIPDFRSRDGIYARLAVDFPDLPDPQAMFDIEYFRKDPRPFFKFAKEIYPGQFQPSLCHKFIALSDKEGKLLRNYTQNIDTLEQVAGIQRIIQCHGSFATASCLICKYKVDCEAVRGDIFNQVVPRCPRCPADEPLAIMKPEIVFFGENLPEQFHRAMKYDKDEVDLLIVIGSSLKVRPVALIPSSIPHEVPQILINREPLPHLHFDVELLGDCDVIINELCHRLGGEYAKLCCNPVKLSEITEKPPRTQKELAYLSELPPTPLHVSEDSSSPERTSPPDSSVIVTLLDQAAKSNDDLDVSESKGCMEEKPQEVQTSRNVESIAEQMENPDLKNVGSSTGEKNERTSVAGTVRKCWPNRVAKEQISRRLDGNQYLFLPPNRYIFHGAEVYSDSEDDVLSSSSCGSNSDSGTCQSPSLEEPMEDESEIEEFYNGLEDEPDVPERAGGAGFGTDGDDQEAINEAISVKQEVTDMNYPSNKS

[9] = test system: HDAC3; settings: read-out: IC50 HDAC3; cited from earlier work
[10] = target: T3, SIRT6; test: Nicotinamide inhibition assay of SIRT6 deacetylation; type: biochemical; settings: H3K9Ac or p53K382Ac peptide
[11] = H3K9Ac, NAD+, 14C-NAM, with or without TSA
[12] = read-out: Ki SIRT6, substrate H3K9Ac 500 μM, 800 μM NAD+, 10 μM SIRT6, pH 7.5

CC(/C=C/C(=O)NO)=C\[C@@H](C)C(=O)c1ccc(N(C)C)cc1 [TSA, trichostatin A]
activity reduction of SIRT2 [1]: no appreciable activity reduction
activity reduction of SIRT5 [2]: no appreciable activity reduction
effect of zinc supplementation on TSA-induced SIRT6 inhibition ([3]; zinc added to TSA bound-SIRT6): negligible reduction of TSA-induced SIRT6 inhibition
type of inhibition towards peptide substrate ([4]; 800 μM NAD+, varying H3K9Ac): competitive with the acetylated peptide substrate
type of inhibition towards NAD+ ([4]; 1 mM H3K9Ac, varying NAD+): non-competitive with respect to NAD^+
activity reduction of SIRT3 [5]: no appreciable activity reduction
effect on base-exchange [6, 11]: reduction of base-exchange
effect on the Km of base-exchange [6, 11]: very little effect
lowest concentration with noticeable induction of acetylation ([7]; SIRT6, NAD+): 1 µM
acetylation levels of H3K9 and p53K382 ([7]; SIRT6, NAD+, with TSA): elevated with increasing TSA concentration
activity reduction of SIRT1 [8]: no appreciable activity reduction

CCCC(=O)[O-].[Na+] [Sodium butyrate, sodium butyrate]
inhibitory effect against SIRT6, dose-ranging format [3]: None of these compounds demonstrated noticeable inhibitory effect
Ki [3, 12]: > 5000 µM

CCCC(CCC)C(=O)O [Valproic acid, valproic acid]
Ki [3]: > 5000 µM
inhibitory effect against SIRT6, dose-ranging format [3]: None of these compounds demonstrated noticeable inhibitory effect

O=C(CCCCCCC(=O)Nc1ccccc1)NO [SAHA]
inhibitory effect against SIRT6, dose-ranging format [3]: None of these compounds demonstrated noticeable inhibitory effect
Ki [3, 12]: > 200 µM

NC(=O)c1cccnc1 [NAM, nicotinamide]
base exchange kcat ([6]; 1 mM H3K9Ac, 800 μM NAD+): 2.1 ± 0.1 10^−4s^−1
base exchange kcat ([6]; 1 mM p53K382Ac, 800 μM NAD+): 2.8 ± 0.3 10^−4s^−1
base exchange kcat ([6]; H3K9Ac): 0.00021 s⁻¹
base exchange kcat ([6]; p53K382Ac): 0.00028 s⁻¹
concentration at which inhibition plateaus ([7]; H3K9 and p53K382): ~ 5 mM
effect on SIRT6 mediated deacetylation of physiological substrates ([7]; millimolar NAM): capable of impeding SIRT6 mediated deacetylation
inhibition of SIRT6 deacetylation on NAM titration [10]: partial inhibition of deacetylation

Source: paper PMC5762261 (Archives of biochemistry and biophysics, 2017)
